Drawing on patent US20140171404A1, “Autotaxin inhibitors” (NOVARTIS AG, priority 2012, published 2014), this text covers IC50 for 32 compounds.

The assay has as its target T1, Recombinant human ATX (Homo sapiens, UniProt Q13822).
T1 construct: made in house; host or cells: human embryonic kidney (HEK) cells
Description: Assessing ATX inhibition: released choline, Amplex Red fluorescence. Type of assay: biochemical. Conditions: ATX 10 nM, LPC 18:1 10 μM, pre-incubated with ATX at 37° C. for 20 minutes; Table 1, exemplified compounds; read-out: IC50. As for the experimental part: LPC (oleoyl (18:1)) was purchased from Avanti Polar Lipids (Alabaster; AL) and solubilized in methanol to 20 mM. Amplex Red was obtained from Invitrogen Life Technologies (Paisley, UK) and dissolved in DMSO to 10 mM. Choline oxidase and horseradish peroxidase (HRP) were obtained from Sigma Aldrich (Dorset, UK) and dissolved in HBSS to 20 U/ml and 200 U/ml respectively. All reagents were stored at −20° C. in single use aliquots. All experimental measurements were performed in assay buffer made up immediately prior to use (HBSS, 0.01% BSA essentially fatty acid free).
Recombinant human ATX was prepared at Novartis (Basel, CH) in a human embryonic kidney (HEK) cell preparation, and stored in single use aliquots of […] (26 μM) stocks stored at −80° C.
All experimental measurements were performed in black 384 well polystyrene (low volume, round bottom, Corning (3676)) plates. PerkinElmer EnVision (Fluorescence Intensity/Absorbance Monochromator) or Tecan Infinite 200 PRO series plate reader was used to detect change in fluorescent intensity.
ATX activity was determined by measurement of released choline in reactions containing ATX (10 nM), choline oxidase (0.1 U/ml), HRP (100 U/ml), amplex red (50 μM) and LPC 18:1 (10 μM). Compounds of the invention were prepared as 10 point serial dilutions from 1 μM in duplicate and pre-incubated with ATX at 37° C. for 20 minutes prior to the addition of remaining reagents. The liberated choline was measured from changes in fluorescence intensity (λex 530 nm, λem 590 nm) of the product resurofin at 37° C. every 2 minutes over a 40-minute period. ATX activity was measured as a slope of the linear portion of the progress curve, typically between 14 to 24 minutes.
Slope data was exported to Graphpad prism (Graphpad software, San Diego, Calif.) where data was fitted to equation 1.
Y=Bottom+(Top−Bottom)/(1+10̂((Log IC50−X)*HillSlope)) Equation 1: […]

Broadly, the IC50 is the midpoint of a concentration-inhibition curve. For the compound `CN(CCC1CCN(C(=O)OCc2cc(Cl)cc(Cl)c2)CC1)C(=O)c1cc(O)no1` [Example 1, 3,5-Dichlorobenzyl 4-(2-(3-hydroxy-N-methylisoxazole-5-carboxamido)ethyl) piperidine-1-carboxylate], the IC50 is 644 nM.
As to `COc1c(N(C)CCC2CCN(C(=O)OCc3cc(Cl)cc(Cl)c3)CC2)c(=O)c1=O` [Example 2], the concentration for half-maximal inhibition (IC50) is 248 nM.
Regarding `CCOc1c(NCCC2CCN(C(=O)OCc3cc(Cl)cc(Cl)c3)CC2)c(=O)c1=O` [Example 3], the 50% inhibitory concentration (IC50) is 445 nM.
The same measure for `O=C(OCc1cc(Cl)cc(Cl)c1)N1CCC(CCNc2c(O)c(=O)c2=O)CC1` [Example 4]: 728 nM.
Next, `CC1CC(CNC(=O)CCc2cc(O)no2)CCN1C(=O)OCc1cc(Cl)cc(Cl)c1` (centres unmarked) [Example 5]: 313 nM.
Next, `CN(CCC1CCN(C(=O)OCc2cc(Cl)cc(Cl)c2)CC1)C(=O)Cc1c[nH]nn1` [Example 6, 3,5-Dichlorobenzyl 4-(2-(N-methyl-2-(1H-1,2,3-triazol-4-yl)acetamido)ethyl)piperidine-1-carboxylate]: 62 nM.
For `O=C(Cc1c[nH]nn1)NCCC1CCN(C(=O)OCc2cc(Cl)cc(Cl)c2)CC1` [Example 7, 3,5-Dichlorobenzyl 4-(2-(2-(1H-1,2,3-triazol-4-yl)acetamido)ethyl)piperidine-1-carboxylate], the IC50 was 28 nM.
With `Cc1oc(=O)[nH]c1C(=O)N(C)CCC1CCN(C(=O)OCc2cc(Cl)cc(Cl)c2)CC1` [Example 8, 3,5-Dichlorobenzyl 4-(2-(N,5-dimethyl-2-oxo-2,3-dihydrooxazole-4-carboxamido)ethyl)piperidine-1-carboxylate], the IC50 came out at 360 nM.
`O=C(/C=C/c1c[nH]cn1)NC1CCN(C(=O)OCc2cc(Cl)cc(Cl)c2)CC1` [Example 9, (E)-3,5-Dichlorobenzyl 4-(3-(1H-imidazol-4-yl)acrylamido)piperidine-1-carboxylate]: the IC50 worked out at 109 nM.
Next, `O=C(O)CCCCC(=O)NC1CCN(C(=O)OCc2cc(Cl)cc(Cl)c2)CC1` [Example 10, 6-((1-(((3,5-Dichlorobenzyl)oxy)carbonyl)piperidin-4-yl)amino)-6-oxohexanoic acid]: 543 nM.
Next, `CCOc1c(NCCC2CN(C(=O)OCc3cc(Cl)cc(Cl)c3)CCO2)c(=O)c1=O` (centres unmarked) [Example 11, 3,5-Dichlorobenzyl 2-(2-((2-ethoxy-3,4-dioxocyclobut-1-en-1-yl)amino)ethyl)morpholine-4-carboxylate]: 51 nM; `O=C(NCCC1CN(C(=O)OCc2cc(Cl)cc(Cl)c2)CCO1)c1c[nH]c(=O)o1` (centres unmarked) [Example 12, 3,5-Dichlorobenzyl 2-(2-(2-oxo-2,3-dihydrooxazole-5-carboxamido)ethyl)morpholine-4-carboxylate]: 520 nM; `CN(CCC1CN(C(=O)OCc2cc(Cl)cc(Cl)c2)CCO1)C(=O)c1c[nH]c(=O)o1` (centres unmarked) [Example 13, 3,5-Dichlorobenzyl 2-(2-(N-methyl-2-oxo-2,3-dihydrooxazole-5-carboxamido)ethyl)morpholine-4-carboxylate]: 828 nM.
Consider `CCOc1c(N(C)CCC2CN(C(=O)OCc3cc(Cl)cc(Cl)c3)CCO2)c(=O)c1=O` (centres unmarked) [Example 14, 3,5-Dichlorobenzyl 2-(2-((2-ethoxy-3,4-dioxocyclobut-1-en-1-yl)(methyl)amino)ethyl)morpholine-4-carboxylate], for which the half-inhibitory concentration (IC50) turned out to be 540 nM.
The same measure for `CN(CCC1CCN(C(=O)OCc2cc(Cl)cc(Cl)c2)CC1)C(=O)c1c[nH]c(=O)s1` [Example 15, 3,5-Dichlorobenzyl 4-(2-(N-methyl-2-oxo-2,3-dihydrothiazole-5-carboxamido)ethyl)piperidine-1-carboxylate]: 29 nM.
Next, `O=C(NCCC1CCN(C(=O)OCc2cc(Cl)cc(Cl)c2)CC1)c1nn[nH]n1` [Example 16, 3,5-Dichlorobenzyl 4-(2-(2H-tetrazole-5-carboxamido)ethyl)piperidine-1-carboxylate]: 596 nM.
`O=C(CCCc1c[nH]nn1)NC1CCN(C(=O)OCc2cc(Cl)cc(Cl)c2)CC1` [Example 17, 3,5-Dichlorobenzyl 4-(4-(1H-1,2,3-triazol-4-yl)butanamido)piperidine-1-carboxylate]: the 50% inhibitory concentration (IC50) came to 2 nM.
The same measure for `CN(C(=O)CCCc1c[nH]nn1)C1CCN(C(=O)OCc2cc(Cl)cc(Cl)c2)CC1` [Example 18, 3,5-Dichlorobenzyl 4-(N-methyl-4-(1H-1,2,3-triazol-4-yl)butanamido)piperidine-1-carboxylate]: 94 nM; for `O=C(NCCC1CCN(C(=O)OCc2cc(Cl)cc(Cl)c2)CC1)c1c[nH]c(=O)o1` [Example 21, 3,5-Dichlorobenzyl 4-(2-(2-oxo-2,3-dihydrooxazole-5-carboxamido)ethyl)piperidine-1-carboxylate]: 106 nM; for `O=C(CCc1cc(O)no1)NCCC1CCN(C(=O)OCc2cc(Cl)cc(Cl)c2)CC1` [Example 22, 3,5-Dichlorobenzyl 4-(2-(3-(3-hydroxyisoxazol-5-yl)propanamido)ethyl)piperidine-1-carboxylate]: 586 nM.
The same measure for `O=C(CCc1cc(O)no1)NC1CCN(C(=O)OCc2cc(Cl)cc(Cl)c2)CC1` [Example 23, 3,5-Dichlorobenzyl 4-(3-(3-hydroxyisoxazol-5-yl)propanamido)piperidine-1-carboxylate]: 396 nM; for `CN(CCC1CCN(C(=O)OCc2cc(Cl)cc(Cl)c2)CC1)C(=O)c1coc(=O)[nH]1` [Example 24, 3,5-Dichlorobenzyl 4-(2-(N-methyl-2-oxo-2,3-dihydrooxazole-4-carboxamido)ethyl)piperidine-1-carboxylate]: 624 nM; for `CN(CCC1CCN(C(=O)OCc2cc(Cl)cc(Cl)c2)CC1)C(=O)c1cc(O)[nH]n1` [Example 25, 3,5-Dichlorobenzyl 4-(2-(5-hydroxy-N-methyl-1H-pyrazole-3-carboxamido)ethyl)piperidine-1-carboxylate]: 520 nM.
In the case of `CN(CCCN1CCN(C(=O)OCc2cc(Cl)cc(Cl)c2)CC1)C(=O)c1c[nH]c(=O)o1` [Example 26, 3,5-Dichlorobenzyl 4-(3-(N-methyl-2-oxo-2,3-dihydrooxazole-5-carboxamido)propyl)piperazine-1-carboxylate], the IC50 is 156 nM.
The same measure for `O=C(NCCN1CCN(C(=O)OCc2cc(Cl)cc(Cl)c2)CC1)c1c[nH]c(=O)o1` [Example 27, 3,5-Dichlorobenzyl 4-(2-(2-oxo-2,3-dihydrooxazole-5-carboxamido)ethyl)piperazine-1-carboxylate]: 375 nM; for `CN(CCC1CCN(C(=O)OCc2cc(Cl)cc(Cl)c2)CC1)C(=O)c1noc(=O)[nH]1` [Example 28, 3,5-Dichlorobenzyl 4-(2-(N-methyl-5-oxo-4,5-dihydro-1,2,4-oxadiazole-3-carboxamido)ethyl)piperidine-1-carboxylate]: 786 nM.
Next, `CN(CCC1CCN(C(=O)OCc2cc(Cl)cc(Cl)c2)CC1)C(=O)c1nn[nH]n1` [Example 29, 3,5-Dichlorobenzyl 4-(2-(N-methyl-2H-tetrazole-5-carboxamido)ethyl)piperidine-1-carboxylate]: 541 nM; `CN(CCC1CCN(C(=O)/C=C/c2cc(Cl)cc(Cl)c2)CC1)C(=O)c1c[nH]c(=O)o1` [Example 30, (E)-N-(2-(1-(3-(3,5-Dichlorophenyl)acryloyl)piperidin-4-yl)ethyl)-N-methyl-2-oxo-2,3-dihydrooxazole-5-carboxamide]: 274 nM.
The same measure for `O=C(NCCC1CCN(C(=O)/C=C/c2cc(Cl)cc(Cl)c2)CC1)c1c[nH]c(=O)o1` [Example 31, (E)-N-(2-(1-(3-(3,5-Dichlorophenyl)acryloyl)piperidin-4-yl)ethyl)-2-oxo-2,3-dihydrooxazole-5-carboxamide]: 387 nM; for `O=C(CCc1cc(O)no1)NCC1CCN(C(=O)OCc2cc(Cl)cc(Cl)c2)CC1` [Example 33, 3,5-Dichlorobenzyl 4-((3-(3-hydroxyisoxazol-5-yl)propanamido)methyl)piperidine-1-carboxylate]: 131 nM; for `O=C(NCCCN1CCN(C(=O)OCc2cc(Cl)cc(Cl)c2)CC1)c1c[nH]nn1` [Example 34, 3,5-Dichlorobenzyl 4-(3-(1H-1,2,3-triazole-4-carboxamido)propyl)piperazine-1-carboxylate]: 282 nM.
As for `CN(CCC1CCN(C(=O)OCc2cc(Cl)cc(Cl)c2)CC1)C(=O)c1c[nH]nn1` [Example 35, 3,5-Dichlorobenzyl 4-(2-(N-methyl-1H-1,2,3-triazole-4-carboxamido)ethyl)piperidine-1-carboxylate], the 50% inhibitory concentration (IC50) was found to be 175 nM.
